PMC10975980, “Open Meter Duo: Low-Cost Instrument for Fluorimetric Determination of Cholinesterase Activity” (Sensors (Basel, Switzerland), 2024)

Biological target: T1, acetylcholinesterase from Electrophorus electricus (AChE, EC 3.1.1.7, type V-S) (Electrophorus electricus, UniProt O42275)
T1 construct: commercial native electric eel enzyme, type V-S (Merck), crude enzyme protein dissolved in PBS with BSA as stabilizer
Experiment: fluorimetric indoxyl acetate assay (Open Meter Duo)
Type: biochemical
Description: fluorimetric indoxyl acetate assay (Open Meter Duo) on acetylcholinesterase from Electrophorus electricus (AChE, EC 3.1.1.7, type V-S)

T1 sequence (O42275 24-633): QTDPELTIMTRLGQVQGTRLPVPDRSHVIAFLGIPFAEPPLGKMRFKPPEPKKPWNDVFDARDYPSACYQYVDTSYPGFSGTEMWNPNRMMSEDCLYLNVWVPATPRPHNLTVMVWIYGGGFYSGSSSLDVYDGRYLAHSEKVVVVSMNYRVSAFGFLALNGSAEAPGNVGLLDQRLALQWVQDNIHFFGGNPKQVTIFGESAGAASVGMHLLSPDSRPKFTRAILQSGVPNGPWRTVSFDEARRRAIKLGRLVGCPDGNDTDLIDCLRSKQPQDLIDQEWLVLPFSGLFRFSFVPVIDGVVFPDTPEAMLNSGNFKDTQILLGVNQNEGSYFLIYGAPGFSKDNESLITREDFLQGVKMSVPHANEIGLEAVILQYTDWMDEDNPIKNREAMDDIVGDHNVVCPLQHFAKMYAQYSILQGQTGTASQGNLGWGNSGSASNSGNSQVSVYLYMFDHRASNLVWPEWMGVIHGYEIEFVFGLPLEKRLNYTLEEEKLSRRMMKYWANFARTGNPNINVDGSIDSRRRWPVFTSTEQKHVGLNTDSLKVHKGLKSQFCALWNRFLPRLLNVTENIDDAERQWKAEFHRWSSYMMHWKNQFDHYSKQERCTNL

CNC(=O)Oc1cccc2c1OC(C)(C)C2 [Carbofuran]
IC50: 84.3 nM
